According to publication PMC4291348, “A Continuous Enzyme-Coupled Assay for Triphosphohydrolase Activity of HIV-1 Restriction Factor SAMHD1” (Antimicrobial Agents and Chemotherapy, 2014):

Columns and labels:
SAMHD1 = test system: T1, SAMHD1; assay: IEX-HPLC assay of SAMHD1 triphosphohydrolase activity; assay type: biochemical, human; conditions: 0.2 mM GTP activated, 1 mM dATP, three enzyme concentrations 2.5, 5, 7.5 µM
T1 construct: The catalytic domain of SAMHD1 (residues 115 to 626) was expressed and purified as previously described; made in house
Method: IEX-HPLC assay of SAMHD1 Triphosphohydrolase activity
In a typical assay 2-10 µM SAMHD1 was incubated with 0.2 mM GTP activator and 1mM dNTP as substrate in Reaction buffer, 20mM Tris-HCl, 150 mM NaCl, 5 mM MgCl2, 2 mM TCEP (pH 7.5). The reaction was allowed to proceed and samples withdrawn at timed intervals up to 5 minutes and terminated by 10 fold dilution into 18.0% acetonitrile, 25mM Tris-HCl, 1 mM EDTA pH 8.0. The nucleotide hydrolysis reactions were analysed by anion exchange HPLC using a DNA-PAC100 (4 x 50mm) column (Dionex). The column was equilibrated at 30°C at 1 mL/min in 25mM Tris-HCl, 0.5% acetonitrile pH 8.0 (Buffer A). […] Absorbance data from the column eluent was continuously monitored between 200-400nm (2 nm interval) using MD-2010 photodiode array detector (JASCO). Peak integration of the absorbance data recorded at 260 nm was used to quantify the amount of substrate and products during at each time point of the reaction. Initial rates of dNTP hydrolysis were determined from the linear part of plots of substrate against time.
Supplementary Figure S1 - HPLC traces of 0.2 mM GTP activated SAMHD1 hydrolysis of 1 mM dATP. […] Inset, kcat was determined by linear regression of Kapp over three enzyme concentrations, 2.5 µM, 5 µM and 7.5
µM. Error bars represent the SEM of three independent measurements recorded at each substrate concentration. […]

[1] = target: T2, SAMHD1 (residues 115 to 626) (Homo sapiens, UniProt Q9Y3Z3); assay: Continuous enzyme-coupled (Ppx1 / MDCC-PBP) real-time assay of SAMHD1 triphosphohydrolase activity; assay type: biochemical; conditions: GTP activator 0.2 mM, 25°C
T2 construct: The catalytic domain of SAMHD1 (residues 115 to 626) was expressed and purified as previously described; made in house
Method: The steady-state kinetics of SAMHD1 were determined by a coupled-enzyme assay using Ppx1 and a fluorescent phosphate biosensor, MDCC-PBP. The reactions were set up in 20-μl volumes in 384-well low-protein-binding microplates (Corning, USA), and the time-dependent fluorescence signal was measured using a Tecan Saffire^2 multiwell plate reader (Männedorf, Switzerland). Solutions containing SAMHD1 (residues 115 to 626), Ppx1, MDCC-PBP, an activator, and an inhibitor (if present) were incubated for 5 min at 25°C before the reaction was initiated by the addition of the substrate. The final concentrations were 100 nM SAMHD1, 10 nM Ppx1, and 40 μM MDCC-PBP. Depending on the experiment, the concentration of the substrate, the activator, or the inhibitor varied while the substrate and/or the activator was held constant at 1 mM and 0.2 mM, respectively. The fluorescence intensity was recorded at 430 nm for excitation and 465 nm for emission wavelengths, with a 7-nm slit width, at 8- to 10-s time intervals over a period of 10 to 30 min. The standard curves were obtained by incubating 40 μM MDCC-PBP with different concentrations of phosphate (Pi) and measuring the fluorescence, as discussed above. The fluorescence response was linear and in the range of 0 to 20 μM Pi.
The steady-state rates were obtained from the time courses of Pi formation by linear regression of the data points in the linear phase of the reaction. Rates were divided by the SAMHD1 concentration and were plotted versus the activator, substrate, or inhibitor concentration. Apparent dissociation constants for the activator (KA) or the substrate binding (KS) and the catalytic constant (kcat) were determined by nonlinear least-squares fitting using either a hyperbolic or a Hill-function equation in the software package GraFit 7.0.3 (Erithacus Software, United Kingdom) ([22]). […] Data from the three different experiments were analyzed by a least-squares fit using the equation for competitive inhibition. The fits for the three data sets yielded invariant values for the inhibition constants (Ki), supporting a competitive mode of inhibition. All measurements were performed in triplicate in the reaction buffer.

T2 sequence (Q9Y3Z3 115-626): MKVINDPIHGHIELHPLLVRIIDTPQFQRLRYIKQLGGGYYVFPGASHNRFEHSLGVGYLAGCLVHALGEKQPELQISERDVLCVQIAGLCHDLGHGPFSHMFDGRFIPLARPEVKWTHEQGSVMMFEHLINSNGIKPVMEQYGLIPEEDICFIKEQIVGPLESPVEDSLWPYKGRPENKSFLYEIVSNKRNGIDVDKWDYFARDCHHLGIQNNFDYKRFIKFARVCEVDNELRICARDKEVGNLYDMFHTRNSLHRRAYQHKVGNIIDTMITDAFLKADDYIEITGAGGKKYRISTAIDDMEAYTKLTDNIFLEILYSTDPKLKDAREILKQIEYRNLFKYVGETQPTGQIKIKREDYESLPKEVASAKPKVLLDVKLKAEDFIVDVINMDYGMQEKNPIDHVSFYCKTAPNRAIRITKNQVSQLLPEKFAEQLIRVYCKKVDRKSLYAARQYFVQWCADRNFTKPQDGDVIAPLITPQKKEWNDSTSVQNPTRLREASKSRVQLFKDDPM

kcat (SAMHD1): 0.99 s⁻¹
KS, apparent dissociation constant for substrate binding [1]: 42.1 ± 6.9 µM
kcat [1]: 0.94 ± 0.06 s⁻¹
Structure (SMILES): Nc1ncnc2c1ncn2[C@H]1C[C@H](O)[C@@H](COP(=O)(O)OP(=O)(O)OP(=O)(O)O)O1 [dATP]
